For one assay, the system named is anti-Fy^b monoclonal antibody (LM447). In words: Phage ELISA (capture ELISA) of phage-peptides on coated anti-Fy^b antibody. Type of assay: binding, Murine. As to conditions: FIG. 1; LM447 coated from 10 μg/ml stock; phage culture supernatant; OD450 greater than 0.1 considered positive; 20 phage assayed. On the procedure:
The ability of the recovered phage-peptides to react with the antibodies used in their selection was confirmed by capture ELISA. A 10 μg/ml stock of appropriate monoclonal antibody was prepared in ELISA coating buffer and 150 μl aliquots were added to wells of an Immulon 4 ELISA plate, and then incubated overnight at 4° C. Unbound antibody was discarded and the wells were blocked with 350 μl of blocking buffer (0.1M NaHCO3/3% skimmed milk powder) for 1 hour at 4° C. The wells were washed three times with 300 μl TBS/0.5% Tween 20 and 100 μl of selected phage culture supernatants were added to appropriate wells for 1 hour at room temperature. Unbound phage were removed and the wells washed six times with 300 μl TBS/0.5% Tween 20. A 1:5000 dilution of horseradish peroxidase (HRP) conjugated anti-M13, secondary antibody was prepared in blocking buffer and 100 μl aliquots added to each well. Following incubation for 1 hour at room temperature the wells were washed six times with 300 μl TBS/0.5% Tween 20. To develop the reactions, a 200 μl aliquot of o-phenylenediamine dihydrochloride (OPD) substrate (Sigma) was added to each well. The absorbance at 450 nm was measured, following incubation at room temperature for 1 hour, by a microplate ELISA reader. An OD450 signal greater than 0.1 was considered positive.
The phage ELISA results confirmed the binding of the anti-Fy^b monoclonal, LM447. A 10 μg/ml stock of this monoclonal antibody was prepared in ELISA coating buffer and 150 μl aliquots were added to wells of an Immulon 4 ELISA plate, and then incubated overnight at 4° C. Unbound antibody was discarded and the wells were blocked with 350 μl of blocking buffer for 1 hour at 4° C. The wells were washed three times with 300 μl TBS/0.5% Tween 20 and 100 μl of selected phage culture supernatants were added to appropriate wells for 1 hour at room temperature. Unbound phage were removed and the wells washed six times with 300 μl TBS/0.5% Tween 20. A 1:5000 dilution of horseradish peroxidase (HRP) conjugated anti-M13, secondary antibody was prepared in blocking buffer and 100 μl aliquots added to each well. Following incubation for 1 hour at room temperature the wells were washed six times with 300 μl TBS/0.5% Tween 20. To develop the reactions, 200 μl aliquots of o-phenylenediamine dihydrochloride (OPD) substrate (Sigma) was added to each well. The absorbance at 450 nm was measured following incubation at room temperature for 1 hour. The absorbance values at 450 nm, confirmed the binding of 14 (Peptides Fyb1, Fyb2, Fyb4-5, Fyb7-13, Fyb25, 27 & 28) of the 20 phage assayed (see FIG. 1).
Background: In an ELISA, binding on a coated surface is turned into a signal by an enzyme label.
Turning to MYQDTPPPRKNV [Fyb1], the “Phage ELISA binding of phage-peptide to anti-Fy^b antibody LM447 (absorbance at 450 nm)” value (“Phage ELISA binding of phage-peptide” for short) is “phage ELISA signals equally as strong as Peptides Fyb12 and Fyb13”.

Consider MFQEHTPAFGGL [Fyb7], for which the “Phage ELISA binding of phage-peptide” value is “phage ELISA signals equally as strong as Peptides Fyb12 and Fyb13”.

Regarding MFQPTHWGTRLS [Fyb9], the “Phage ELISA binding of phage-peptide” value was “phage ELISA signals equally as strong as Peptides Fyb12 and Fyb13”.

The same assay, now with this note: FIG. 1; LM447 coated from 10 μg/ml stock; phage culture supernatant; OD450 greater than 0.1 considered positive; 20 phage assayed; listed as Fybll.
With MVQELPFVLRSK [Fyb11], the “Phage ELISA binding of phage-peptide” value was “phage ELISA signals equally as strong as Peptides Fyb12 and Fyb13”.

In a further assay the test system is anti-RhD monoclonal antibody T27 (LHM169/81). In words: Biopanning of phage-peptide libraries with anti-RhD T27. Type of assay: binding, Human.
Conditions: not given
From the text: (§1) Three different phage libraries from New England Biolabs. (Ph.D. 7 and Ph.D. 12 displaying linear 7- and 12-mer peptides, respectively and Ph.D. C7C displaying 7-mer peptides constrained by a disulphide bridge at their termini) and a linear 15mer library (kindly provided by Prof. George P. Smith, University of Missouri) were used in biopanning experiments with 10 different monoclonal antibodies and a polyclonal preparation (Table 1).
(§2) For each target antibody/library combination, a separate well of a 96-well Immulon 4 flat-bottomed ELISA plate (Thermo Labsystems) was coated with 5 μg of antibody in 150 μl ELISA coating buffer (15 mM Na2CO3, 35 mM NaHCO3, pH9.6). Plates were sealed and incubated at 4° C. overnight. Unbound antibody was discarded and 350 μl of blocking buffer (0.1M NaHCO3/3% skimmed milk powder) was added to each well. Plates were sealed and incubated for 1 hour at 4° C. The blocking buffer was removed and the wells were washed six times with 300 μl TBS/0.1% Tween 20. Approximately 2×10^11 plaque forming units (pfu) in 100 μl TBS/0.1% Tween 20 were added to each well and the plates were incubated at room temperature for 1 hour. Wells were washed ten times with 300 μl TBS/0.1% Tween 20. Bound phage were eluted by incubation with 100 μl of 0.2M glycine-HCl/BSA, pH2.2 (1 mg/ml) for 10 minutes, then neutralised with 15 μl of 1M Tris-HCL (pH9.1). An aliquot of the Round 1 eluate was removed and titred. The remainder of the eluted phage were amplified by infection of E. coli ER2538 cells for 4.5 hours at 37° C. The cultures were centrifuged for 10 minutes at 10,000 rpm at 4° C. The supernatants were recovered, ⅙ volume PEG/NaCl (20% polyethylene glycol 8000; 2.5M NaCl) added, then incubated overnight at 4° C. The PEG-precipitated phage were centrifuged at 10,000 rpm for 15 minutes at 4° C. The supernatant was removed and the phage pellet resuspended in 200 μl TBS. Two further rounds of panning were undertaken and approximately 2×10^11 pfu of the Round 2 or Round 3 amplified eluates were used as input phage. Round 3 eluates were titrated but not amplified. Individual plaques were amplified and subjected to PCR amplification, prior to DNA sequence analysis. The specificity of peptide-antibody binding was subsequently determined using both phage ELISA and SPOTs techniques.
Turning to RhD 14 (DRRIFWWSLRSAPGA), the “Panning Antibody (antibody that selected the phage-peptide in biopanning)” value is listed as “RhD T27”.

With RhD 7 (TTVPDTWVLFPR), the “Panning Antibody (antibody that selected the phage-peptide in biopanning)” value is listed as “RhD T27”.

Regarding RhD 2 (LGHHNPH), the “Panning Antibody (antibody that selected the phage-peptide in biopanning)” value is listed as “RhD T27”.

With RhD 13 (VIDWLLCPRGFSACM), the “Panning Antibody (antibody that selected the phage-peptide in biopanning)” value was “RhD T27”.

On to RhD 10 (NYPAVVSNSLLA), for which the “Panning Antibody (antibody that selected the phage-peptide in biopanning)” value is “RhD T27”.

On to RhD 15 (LHAWHRNTIGWWIGF), for which the “Panning Antibody (antibody that selected the phage-peptide in biopanning)” value is listed as “RhD T27”.

Turning to RhD 9 (WHFEWWRATPSG), the “Panning Antibody (antibody that selected the phage-peptide in biopanning)” value is recorded as “RhD T27”.

In the case of RhD 6 (FSPNNSETTNYT), the “Panning Antibody (antibody that selected the phage-peptide in biopanning)” value was “RhD T27”.

For the substance RhD 1 (GLFKIQP), the “Panning Antibody (antibody that selected the phage-peptide in biopanning)” value is listed as “RhD T27”.

Take RhD 12 (HQNPWLLWPRGF): the “Panning Antibody (antibody that selected the phage-peptide in biopanning)” value is “RhD T27”.

Take RhD 4 (HTALSTS): the “Panning Antibody (antibody that selected the phage-peptide in biopanning)” value was “RhD T27”.

As to RhD 5 (TPGSGQF), the “Panning Antibody (antibody that selected the phage-peptide in biopanning)” value is on record as “RhD T27”.

Consider RhD 8 (SNVPLHWILSPR), for which the “Panning Antibody (antibody that selected the phage-peptide in biopanning)” value is listed as “RhD T27”.

On to RhD 11 (DVYDTRPYHGFM), for which the “Panning Antibody (antibody that selected the phage-peptide in biopanning)” value was “RhD T27”.

RhD 3 (NLLPAKL): the “Panning Antibody (antibody that selected the phage-peptide in biopanning)” value is on record as “RhD T27”.

Another assay concerns anti-RhE monoclonal antibody E0002. In words: SPOTs membrane hybridisation with anti-RhE monoclonal E0002. As to conditions: FIG. 9; 36 RhE peptide mimotopes; CPep75 (Spot 37), CPep76 (Spot 38) negative controls. Type of assay: binding, Human. As for the experimental part: (§3) The peptide mimotopes were synthesised by the SPOT method (Frank; 1992) using F-moc chemistry. The peptides were anchored to an amino-PEG derivatised cellulose membrane (Intavis AG) and synthesised as discrete spots. Synthesis was by stepwise elongation of the peptide chain from C-terminus to the N-terminus, by manual pipetting of the respective amino acids, according to the Sigma Genosys protocol. Incubation times were modified when using Intavis AG membranes. After addition of the final amino acid, the terminal residues and side chains of the peptides were deprotected and the membrane was washed with methanol; air dried and then stored at −20° C. prior to use.
(§4) A membrane was placed in a 50 ml Falcon tube and blocked overnight at 4° C. with gentle agitation in TBS/0.25% Tween 20/5% skimmed milk powder. A 2 μg/ml dilution of the primary (1°) antibody (monoclonal or polyclonal) was prepared in TBS/0.25% Tween20/5% skimmed milk powder before incubation with the membrane for 1 hour at room temperature on a spiral rotor. Following 4 washes, each for 5 minutes with 20 ml of TBS/0.25% Tween20, the membrane was incubated for 1 hour at room temperature with a 1/5000 dilution of the secondary (2°) antibody, prepared in TBS/0.25% Tween20/5% skimmed milk powder. Peroxidase labelled rabbit anti-mouse IgG (Sigma) was used for the detection of the murine anti-Fy^a (LM487) and anti-Fy^b (LM447) 1° antibodies and peroxidase labelled goat anti-human IgG (Pharmacia) for the detection of the human 1° antibodies. Following 4 washes, each for 5 minutes with 20 ml of TBS/0.25% Tween20, the membrane was blotted to remove excess fluid. Bound antibody was detected by chemiluminescence. ECL detection reagents (Amersham Biosciences) were mixed and overlaid on the membrane for 2 minutes. The chemiluminescent substrate was removed and the membrane blotted to remove excess fluid. Positive spots were visualised following exposure to Hyperfilm ECL (Amersham Biosciences) for a series of short incubation times (5 seconds to 10 minutes).
The RhD, RhE and Rhe peptide mimotopes (see Tables 4 & 5) were synthesised by SPOTs and hybridisation of the membranes was undertaken with the appropriate antibodies (Table 1). FIGS. 7-10 show examples of peptide mimotopes reacting specifically with the antibody originally used in their selection.
On to “RhE25: RhE peptide mimotope, Table 5 (GLSYYALITRYLGAA)”, for which the “SPOTs binding of anti-RhE monoclonal antibody E0002” value is “Specific binding”.

Another assay deals with anti-Fy^b monoclonal antibody (LM447). In words: SPOTs membrane hybridisation with anti-Fy^b antibody. Type of assay: binding, Murine. As to conditions: FIG. 2; 20 Fyb peptides in duplicate; CPep75 (Spot 21) positive control; 2 μg/ml primary antibody; chemiluminescence. On the procedure: as §3, §4
Take TFQYLDPPPFTP [Fyb13]: the “SPOTs binding of anti-Fy^b antibody LM447 to membrane-synthesised peptide” value (shortened to “SPOTs binding … to membrane-synthesised peptide”) is “successfully bound”.

Turning to MYQDTPPPRKNV [Fyb1], the “SPOTs binding … to membrane-synthesised peptide” value is given as “failed to react”.

As to “PDGDYDANLEAAAP [CPep75, 14-mer immunisation peptide used in the development of the LM447 antibody, reference compound]”, the “SPOTs binding … to membrane-synthesised peptide” value was “Binding was also observed”.

With MFQEHTPAFGGL [Fyb7], the “SPOTs binding … to membrane-synthesised peptide” value was “failed to react”.

As for MVQELPFVLRSK [Fyb11], the “SPOTs binding … to membrane-synthesised peptide” value is given as “failed to react”.

Regarding TFQPRSWPNIDL [Fyb12], the “SPOTs binding … to membrane-synthesised peptide” value is listed as “successfully bound”.

As to MFQPTHWGTRLS [Fyb9], the “SPOTs binding … to membrane-synthesised peptide” value is on record as “failed to react”.

Staying with this assay, now noted: FIG. 5; Spots 1-37 = Fya 1-37; Spots 38-40 = Fya17, Fya25, Fya35; Spot 41 Cpep75, 42 Cpep76, 43 CPep118, 44 Fyb1; membranes hybridised in parallel with both antibodies.
On to “PDGDYDANLEAAAP [CPep75, 14-mer immunisation peptide used in the development of the LM447 antibody, reference compound]”, for which the “Reciprocal SPOTs hybridisation: binding of anti-Fy^b monoclonal antibody” value is on record as “capable of binding the anti-Fy^b antibody”.

Staying with this assay, now noted: FIG. 6; 16 peptides Fyb72-87; signal dramatically lower than positive control CPep75 (Spot 17).
For MFQPDNPPTKNP [Fyb84], the “SPOTs binding of anti-Fy^b antibody LM447 to consensus sequence-derived substituted peptides” value is given as “capable of binding”.

As to MFQPDNPPTKNV [Fyb85], the “SPOTs binding of anti-Fy^b antibody LM447 to consensus sequence-derived substituted peptides” value was “capable of binding”.

For the next assay, the system named is anti-RhD monoclonal antibody T22 (LHM 169/80). In words: Biopanning of phage-peptide libraries with anti-RhD T22. Type of assay: binding, Human.
Conditions: not given
Text: as §1, §2
In the case of RhD 30 (HLSSRHLFVPLS), the “Panning Antibody (antibody that selected the phage-peptide in biopanning)” value is “RhD T22”.

Regarding RhD 27 (WHWYPRFSPPSH), the “Panning Antibody (antibody that selected the phage-peptide in biopanning)” value was “RhD T22”.

RhD 39 (AFLGHSHWFPSVASR): the “Panning Antibody (antibody that selected the phage-peptide in biopanning)” value is on record as “RhD T22”.

Turning to RhD 17 (WGIWWNN), the “Panning Antibody (antibody that selected the phage-peptide in biopanning)” value is reported as “RhD T22”.

RhD 35 (VYALGCWPICHK): the “Panning Antibody (antibody that selected the phage-peptide in biopanning)” value was “RhD T22”.

On to RhD 19 (WVHLQSP), for which the “Panning Antibody (antibody that selected the phage-peptide in biopanning)” value is reported as “RhD T22”.

As for RhD 32 (WPCHPICLSPRG), the “Panning Antibody (antibody that selected the phage-peptide in biopanning)” value is on record as “RhD T22”.

For RhD 34 (WNCFPICHASGL), the “Panning Antibody (antibody that selected the phage-peptide in biopanning)” value was “RhD T22”.

Turning to RhD 25 (FHWSWYTPSRPS), the “Panning Antibody (antibody that selected the phage-peptide in biopanning)” value was “RhD T22”.
